{
  "source": "patent US20230167155A1",
  "about": "“COMPOSITIONS AND METHODS” (KING'S COLLEGE LONDON, priority 2020, published 2023)",
  "key": {"[1]": {"tested_on": "ApoE−/− mice", "details": "30-week-old animals; cited from earlier work"}, "[2]": {"molecular_target": "T1, protease activated receptor 1 (PAR-1) (UniProt P30558)", "T1 sequence": "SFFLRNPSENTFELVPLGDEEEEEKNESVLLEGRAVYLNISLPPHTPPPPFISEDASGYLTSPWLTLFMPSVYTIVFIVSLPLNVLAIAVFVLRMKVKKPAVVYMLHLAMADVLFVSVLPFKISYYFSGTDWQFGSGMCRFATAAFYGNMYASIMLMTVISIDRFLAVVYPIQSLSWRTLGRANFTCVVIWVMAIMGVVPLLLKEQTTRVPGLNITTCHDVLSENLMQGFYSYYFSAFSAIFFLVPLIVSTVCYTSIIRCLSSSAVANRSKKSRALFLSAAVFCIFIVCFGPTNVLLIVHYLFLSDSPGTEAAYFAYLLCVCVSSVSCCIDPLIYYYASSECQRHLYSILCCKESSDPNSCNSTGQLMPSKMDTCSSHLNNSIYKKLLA"}, "[3]": {"tested_on": "SOCS3", "test": "SOCS3 expression of macrophages", "assay_type": "cell-based", "excerpt": "This is a well-described inhibitor of IFNγ signalling. In the right graph, the thrombin-induced sensitivity to IFNγ, as assessed by change in iNOS expression, is shown."}, "[4]": {"tested_on": "Mouse primary smooth muscle cells (SMCs) or endothelial cells (EC)", "test": "In vitro secretion of chemokines by SMC/EC after PAR reagents", "assay_type": "cell-based", "parameters": "secretion of MIF (and CCL-2) compared with PAR-1 agonists / secretion of CX3CL1 (and CCL5) compared with a PAR-1 agonist: dose or concentration left out as unconfirmed", "details": "SMC, 12 hour stimulation, 48 hour culture", "procedure": "(§1) In more detail, Mechanistic insights—monocyte recruitment: In vitro secretion of chemokines by PAR-1 and PAR-2 agonists. Mouse primary smooth muscle cells (SMCs) or endothelial cells (EC) at a density of 1×10^6 cells/well of a 24-well plate were serum-starved for 24 hours before addition of FLLRN (PAR-1 […], 10 μM), 2-Furoyl-LIGRLO-Amide (PAR-2 agonist, 10 μM) or 3-MP (3-mercaptopropionyl-F-Cha-Cha-RKPNDK 10 μM) for 12 hours, following which thrombin (10 nM) was added for 1 hour, before a final 48 hours incubation in 2% FCS DMEM. Supernatants of stimulated cells were collected to measure MIF, CCL2, CCL5 and CX3CL1 using ELISA, following manufacturer's protocol.\n(§2) FIG. 22: Secretion of MIF and CX3CL1 by SMC after 12 hour stimulation with either a pure PAR-1 agonist, pure PAR-2 agonist, or by 3-mercaptoproprionyl(MP)—F-Cha-Cha-RKPNDK amide, followed by 48 hour culture period. All used at […]. Patterns of secretion of CCL-2 resemble those of MIF, whereas secretion of CCL5 resembles CX3CL1."}, "[5]": {"tested_on": "C57BL/6 mice", "test": "Delayed type hypersensitivity, contact sensitivity to oxazolone (ear swelling)", "assay_type": "in vivo, mouse", "details": "WT mice, reagent at second exposure to oxazolone, ear thickness 24 hours later", "procedure": "C57BL/6 mice were topically sensitised with oxazolone on the shaved abdomen on day 0. Treatment with either saline, PTL060 (10 mg/g), equimolar PTL0GC-1 or equimolar *3-MP was given on day 3 and day 5, the last immediately prior to re-challenge with oxazolone onto the right ear. The left ear was treated with vehicle alone. On day 6, the difference in swelling of the right and left ears was measured and is presented as D mean ear thickness.\nThis example uses a model of contact hypersensitivity. Here, mice are challenged on the abdomen with the contact sensitizer oxazolone, before a re-challenge […] on both sides of the ear with oxazolone (on the right) or vehicle alone (on the left).\nSwelling of the ears, measured with a micrometer, reflects the influx of monocytes/macrophages and T cells in a typical delayed-type hypersensitivity (DTH) response.\nFIG. 19: Model of DTH involving contact sensitivity to oxazolone. WT mice were administered a PAR-1 agonist or antagonist at the point of second exposure to oxazolone, before ear thickness was assessed 24 hours later, and mice sacrificed for immunohistological analysis of cross sections of the affected ears, to determine the proportional area occupied by CD68+ cells (macrophages). *p<0.05. **p<0.01. ***p<0.001"}, "[6]": {"tested_on": "macrophages", "test": "Sensitivity of macrophages to IFNγ (iNOS expression, flow cytometry)", "assay_type": "cell-based", "details": "100 microM, thrombin 50 iu", "procedure": "In more detail, mechanistic insights: direct effect on monocyte/macrophage phenotype. Sensitivity of macrophages to IFNγ, as assessed by the proportion that express iNOS after stimulation.\nThe enhanced sensitivity to IFNγ induced by thrombin is inhibited by a PAR-1 antagonist—this is via expression of ABCA1 and membrane lipid rafts. […] BMM purified cells cultured in MCSF for 5 days. Cells then removed for 24 hours and incubated with thrombin (50 units) (if an antagonist or 3-mercaptopropionyl-F-Cha-Cha-RKPNDK was used cells were incubated for 2 hours with the antagonist or 3MP prior to thrombin stimulation to allow time for antagonist to dock with PAR). Cells then had media replaced with thrombin+ PAR reagent and IFN gamma at the dose described. For the PAR2 experiments it was at this point that PAR2 was added. Cells were then incubated for 24 further hours and then analysed by flow cytometry for iNOS. Pure PAR-1 antagonist (αagonist)=FLLRN; Pure PAR-2 agonist=2-Furoyl-LIGRLO-amide; 3-MP=3-mercaptopropionyl-F-Cha-Cha-RKPNDK; All used at 100 microM. Thrombin used at 50 iu"}, "[7]": {"tested_on": "murine SMC", "test": "Thrombin-induced secretion of chemokines by SMC with PAR reagents", "assay_type": "cell-based, mouse", "parameters": "thrombin-mediated MIF (and CCL-2) secretion / thrombin-mediated CX3CL1 secretion: dose or concentration left out as unconfirmed", "procedure": "as §1, with “[…] ,” for “following which thrombin (10 nM) was added for 1 hour,”\nIn more detail, mechanistic insights—monocyte recruitment: In vitro secretion of chemokines by thrombin—differential impact of PAR-1 antagonist and 3-mercaptopropionyl-F-Cha-Cha-RKPNDK. Secretion of chemokines from murine SMC after stimulation with thrombin alone (nil), or in presence of a pure PAR-1 antagonist, or 3-MP*.\nas §2\nChemokines measured 48 hours later. Secretion of CCL-2 resembles that of MIF, whereas secretion of CCL5 resembles CX3CL1."}},
  "note": "“Also recorded” adds a separate entry of the source. [ ]: non-standard residue; d: D form. The star is where a group is joined. Orn = NCCC[C@H](N)C(=O)O; 2Furoyl = O=C(c1ccco1)*",
  "data": [
    {"compound": "N=C(N)c1ccc(CNC(=O)[C@@H]2CCN2C(=O)[C@H](NCC(=O)O)C2CCCCC2)cc1", "note": "[Megalatran]", "values": [
      {"measurement": "burden of advanced atheromatous lesions", "setting": "[1]", "result": "reduced burden of advanced atheromatous lesions"}
    ]},
    {"compound": "thrombin", "values": [
      {"measurement": "MIF and CCL2 production by cultured mouse SMCs after stimulation by thrombin (ELISA)", "setting": "[2]", "result": "thrombin-mediated chemokine expression was primarily via PAR-1"}
    ]},
    {"compound": "2-Furoyl-LIGRLO-amide (2Furoyl-LIGRL[Orn]-NH2) [PAR-2 agonist]", "values": [
      {"measurement": "SOCS3 expression", "setting": "[3]", "result": "induces SOCS3 expression"},
      {"measurement": "secretion of CX3CL1 (and CCL5) compared with a PAR-1 agonist", "setting": "[4]", "result": "stimulated better"},
      {"measurement": "secretion of MIF (and CCL-2) compared with PAR-1 agonists", "setting": "[4]", "result": "less so"},
      {"measurement": "ear swelling", "setting": "[5]", "result": "inhibits"},
      {"measurement": "enhanced sensitivity of macrophages to IFNγ induced by thrombin (iNOS)", "setting": "[6]", "result": "reduces the sensitivity of macrophages to IFNγ induced by thrombin; also recorded: dampens the enhanced sensitivity"}
    ]},
    {"compound": "FSLLRY-NH2 trifluoroacetate salt [PAR-2 antagonist]", "values": [
      {"measurement": "ear swelling", "setting": "[5]", "result": "exacerbates"}
    ]},
    {"compound": "FLLRN [PAR-1 antagonist]", "values": [
      {"measurement": "ear swelling", "setting": "[5]", "result": "inhibited"},
      {"measurement": "thrombin-mediated CX3CL1 secretion", "setting": "[7]; SMC, 12 hour", "result": "inhibited"},
      {"measurement": "thrombin-mediated MIF (and CCL-2) secretion", "setting": "[7]; SMC, 12 hour", "result": "inhibited equally"},
      {"measurement": "thrombin-induced secretion of CX3CL1 and CCL5 reduced by", "setting": "[7]; murine SMC, 10 μM, thrombin 10 nM", "result": 50, "unit": "%"},
      {"measurement": "enhanced sensitivity of macrophages to IFNγ induced by thrombin (iNOS)", "setting": "[6]", "result": "inhibited"}
    ]}
  ]
}
